From patent US12612407B2, “Imidazo[2,1-f][1,2,4]triazin-4-amine derivatives as TLR7 agonist” (BEIGENE, LTD., priority 2020, dated 2026)

biological target: T1, human TLR7 (Homo sapiens, UniProt Q9NYK1); assay: HEK293-Blue hTLR7 Reporter Assay (QUANTI-BLUE, SEAP readout); type: cell-based; conditions: HEK-Blue-hTLR7 cells, 24 hrs treatment, Table 1, B1-B232
T1 construct: host or cells: HEK293 (HEK-Blue hTLR7)
T1 sequence (Q9NYK1 27-1049): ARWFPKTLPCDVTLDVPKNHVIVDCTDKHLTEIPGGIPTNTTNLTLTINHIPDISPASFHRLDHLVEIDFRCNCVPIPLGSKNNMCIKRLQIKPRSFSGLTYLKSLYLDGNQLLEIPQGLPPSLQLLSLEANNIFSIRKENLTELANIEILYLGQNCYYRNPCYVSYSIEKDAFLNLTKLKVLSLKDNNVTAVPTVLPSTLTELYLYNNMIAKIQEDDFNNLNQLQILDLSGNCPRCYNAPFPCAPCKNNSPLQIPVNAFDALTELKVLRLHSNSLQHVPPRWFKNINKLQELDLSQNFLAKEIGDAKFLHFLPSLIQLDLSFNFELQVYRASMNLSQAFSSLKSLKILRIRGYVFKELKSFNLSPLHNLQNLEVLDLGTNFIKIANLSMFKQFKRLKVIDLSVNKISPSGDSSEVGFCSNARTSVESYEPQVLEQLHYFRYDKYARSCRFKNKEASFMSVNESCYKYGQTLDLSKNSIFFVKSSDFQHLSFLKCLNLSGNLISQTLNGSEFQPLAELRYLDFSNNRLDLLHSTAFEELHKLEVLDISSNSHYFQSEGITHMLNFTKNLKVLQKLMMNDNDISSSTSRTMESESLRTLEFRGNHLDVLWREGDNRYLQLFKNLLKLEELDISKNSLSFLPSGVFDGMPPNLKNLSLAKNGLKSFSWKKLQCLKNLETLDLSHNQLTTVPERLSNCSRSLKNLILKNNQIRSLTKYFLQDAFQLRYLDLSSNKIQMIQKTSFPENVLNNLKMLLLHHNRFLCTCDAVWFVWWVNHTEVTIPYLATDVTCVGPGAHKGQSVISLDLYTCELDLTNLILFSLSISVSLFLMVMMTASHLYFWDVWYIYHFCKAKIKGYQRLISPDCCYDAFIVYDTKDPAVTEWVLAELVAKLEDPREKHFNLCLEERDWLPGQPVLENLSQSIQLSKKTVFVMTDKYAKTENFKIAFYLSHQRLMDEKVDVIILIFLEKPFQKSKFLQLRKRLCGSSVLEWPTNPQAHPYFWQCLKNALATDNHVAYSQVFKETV
Outline: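 Compound titrations were applied for 24 h at 37° C to reporter HEK293 cells (4×10^4 per well) in which human TLR7 activation drives secreted alkaline phosphatase. Supernatants reacted with Quanti-blue 10-30 min, absorbance read at 620-655 nm, and EC50 derived by sigmoidal curve fitting.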

Molecule	EC50 [µM]
CCCC(Oc1nc(N)c2ncc(Cc3cnc(N4CCNCC4)c(C)c3)n2n1)C1CC1 (stereo not shown) [Compound B202, 2-(1-cyclopropylbutoxy)-7-((5-methyl-6-(piperazin-1-yl)pyridin-3-yl)methyl)imidazo[2,1-f][1,2,4]triazin-4-amine]	0.015
COc1nc(N)c2ncc(Cc3cnc(N4CCNCC4)c(C)c3)n2n1 [Compound B62, 2-methoxy-7-((5-methyl-6-(piperazin-1-yl)pyridin-3-yl)methyl)imidazo[2,1-f][1,2,4]triazin-4-amine]	> 10
CCCCOc1nc(N)c2ncc(Cc3cnc(N4CCC(NC(=O)CN(C)C)CC4)c(C)c3)n2n1 [Compound B142, N-(1-(5-((4-amino-2-butoxyimidazo[2,1-f][1,2,4]triazin-7-yl)methyl)-3-methylpyridin-2-yl)piperidin-4-yl)-2-(dimethylamino)acetamidea]	0.045
CCCCOc1nc(N)c2ncc(Cc3cnc(N4CCN(C(C)=O)CC4)c(C)c3)n2n1 [Compound B57, 1-(4-(5-((4-amino-2-butoxyimidazo[2,1-f][1,2,4]triazin-7-yl)methyl)-3-methylpyridin-2-yl)piperazin-1-yl)ethan-1-one]	3.8
CCCC(C)Oc1nc(N)c2ncc(Cc3cnc(N4CCN(C(=O)CNC)CC4)c(C)c3)n2n1 (stereo not shown) [Compound B111, 1-(4-(5-((4-amino-2-(pentan-2-yloxy)imidazo[2,1-f][1,2,4]triazin-7-yl)methyl)-3-methylpyridin-2-yl)piperazin-1-yl)-2-(methylamino)ethan-1-one]	0.0098
CCCCOc1nc(N)c2ncc(Cc3cnc(N4CCN(C(=O)[C@@H]5CCCN5)CC4)c(C)c3)n2n1 [Compound B68, (S)-4-amino-2-butoxy-7-((5-methyl-6-(4-prolylpiperazin-1-yl)pyridin-3-yl)methyl)imidazo[2,1-f][1,2,4]triazine]	0.106
CCCC(C)Nc1nc(N)c2ncc(Cc3cnc(N4CCNCC4)c(C)c3)n2n1 (stereo not shown) [Compound B150, 7-((5-methyl-6-(piperazin-1-yl)pyridin-3-yl)methyl)-N2-(pentan-2-yl)imidazo[2,1-f][1,2,4]triazine-2,4-diamine]	0.0025
CCCCOc1nc(N)c2ncc(Cc3cnc(N4CCN(C(=O)C5CNCCN5)CC4)c(C)c3)n2n1 (stereo not shown) [Compound B41, (4-(5-((4-amino-2-butoxyimidazo[2,1-f][1,2,4]triazin-7-yl)methyl)-3-methylpyridin-2-yl)piperazin-1-yl)(piperazin-2-yl)methanone]	0.6
CCCCOc1nc(N)c2ncc(Cc3cnc(N4CC5CCCCC5C4)c(C)c3)n2n1 (stereo not shown) [Compound B38, 2-butoxy-7-((5-methyl-6-(octahydro-2H-isoindol-2-yl)pyridin-3-yl)methyl)imidazo[2,1-f][1,2,4]triazin-4-amine]	> 10
CCCCOc1nc(N)c2ncc(Cc3ccc(N4CCNCC4)nc3C)n2n1 [Compound B53, 2-butoxy-7-((2-methyl-6-(piperazin-1-yl)pyridin-3-yl)methyl)imidazo[2,1-f][1,2,4]triazin-4-amine]	0.803
N2-methyl-7-((5-methyl-6-(piperazin-1-yl)pyridin-3-yl)methyl)-N2-propylimidazo[2,1-f][1,2,4]triazine-2,4-diamine [Compound B84]	1
CCC[C@H](C)Oc1nc(N)c2ncc(Cc3cnc(N4CCN(C(=O)CN(C)C)CC4)c(C)c3)n2n1 [Compound B125, (S)-1-(4-(5-((4-amino-2-(pentan-2-yloxy)imidazo[2,1-f][1,2,4]triazin-7-yl)methyl)-3-methylpyridin-2-yl)piperazin-1-yl)-2-(dimethylamino)ethan-1-one]	0.0025
CCC[C@H](C)Oc1nc(N)c2ncc(Cc3cnc(N4CCC(NCC(C)C)CC4)c(C)c3)n2n1 [Compound B215, (S)-7-((6-(4-(isobutylamino)piperidin-1-yl)-5-methylpyridin-3-yl)methyl)-2-(pentan-2-yloxy)imidazo[2,1-f][1,2,4]triazin-4-amine]	0.0042
CCCCOc1nc(N)c2ncc(Cc3ccc(N4CCNCC4)c(OC(C)C)c3)n2n1 [Compound B46, 2-butoxy-7-(3-isopropoxy-4-(piperazin-1-yl)benzyl)imidazo[2,1-f][1,2,4]triazin-4-amine]	0.96
CCCCOc1nc(N)c2ncc(Cc3ccc(N4CCNCC4)c(OC(F)(F)F)c3)n2n1 [Compound B27, 2-butoxy-7-(4-(piperazin-1-yl)-3-(trifluoromethoxy)benzyl)imidazo[2,1-f][1,2,4]triazin-4-amine]	0.971
CC[C@@H](C)Oc1nc(N)c2ncc(Cc3cnc(N4CCN(C(=O)CN(C)C)CC4)c(C)c3)n2n1 [Compound B153, (R)-1-(4-(5-((4-amino-2-(sec-butoxy)imidazo[2,1-f][1,2,4]triazin-7-yl)methyl)-3-methylpyridin-2-yl)piperazin-1-yl)-2-(dimethylamino)ethan-1-one]	0.049
CCCCOc1nc(N)c2ncc(Cc3cnc(N4CCC(NC)CC4)c(C)c3)n2n1 [Compound B161, 2-butoxy-7-((5-methyl-6-(4-(methylamino)piperidin-1-yl)pyridin-3-yl)methyl)imidazo[2,1-f][1,2,4]triazin-4-amine]	0.011
COCCOCCOc1nc(N)c2ncc(Cc3cnc(N4CCNCC4)c(C)c3)n2n1 [Compound B119, 2-(2-(2-methoxyethoxy)ethoxy)-7-((5-methyl-6-(piperazin-1-yl)pyridin-3-yl)methyl)imidazo[2,1-f][1,2,4]triazin-4-amine]	> 10
CCCCCc1nc(N)c2ncc(Cc3cnc(N4CCNCC4)c(C)c3)n2n1 [Compound B180, 7-((5-methyl-6-(piperazin-1-yl)pyridin-3-yl)methyl)-2-pentylimidazo[2,1-f][1,2,4]triazin-4-amine]	0.27
CCC[C@@H](C)Nc1nc(N)c2ncc(Cc3cnc(N4CCC(CNC)CC4)c(C)c3)n2n1 (single isomer, unassigned) [Compound B214]	0.023
CCCCOc1nc(N)c2ncc(Cc3ccc(N4CC(C)NC(C)C4)c(C)c3)n2n1 (stereo not shown) [Compound B61, 2-butoxy-7-(4-(3,5-dimethylpiperazin-1-yl)-3-methylbenzyl)imidazo[2,1-f][1,2,4]triazin-4-amine]	0.66
CCCC(CO)Nc1nc(N)c2ncc(Cc3cnc(N4CCC(CNC)CC4)c(C)c3)n2n1 (stereo not shown) [Compound B232, 2-((4-amino-7-((5-methyl-6-(4-((methylamino)methyl)piperidin-1-yl)pyridin-3-yl)methyl)imidazo[2,1-f][1,2,4]triazin-2-yl)amino)pentan-1-ol]	0.031
CCC[C@H](C)Nc1nc(N)c2ncc(Cc3cnc(N4CCN(C(=O)CNC)CC4)c(C)c3)n2n1 [Compound B231, (S)-1-(4-(5-((4-amino-2-(pentan-2-ylamino)imidazo[2,1-f][1,2,4]triazin-7-yl)methyl)-3-methylpyridin-2-yl)piperazin-1-yl)-2-(methylamino)ethan-1-one]	0.0041
CCC(C)Oc1nc(N)c2ncc(Cc3cnc(N4CCNCC4)c(C)c3)n2n1 (stereo not shown) [Compound B112, 2-(sec-butoxy)-7-((5-methyl-6-(piperazin-1-yl)pyridin-3-yl)methyl)imidazo[2,1-f][1,2,4]triazin-4-amine]	0.037
CCCCOc1nc(N)c2ncc(Cc3cnc(N4CCNCC4)c(CC)c3)n2n1 [Compound B183, 2-butoxy-7-((5-ethyl-6-(piperazin-1-yl)pyridin-3-yl)methyl)imidazo[2,1-f][1,2,4]triazin-4-amine]	0.093
CCCCOc1nc(N)c2ncc(Cc3cnc(N4CCN(C(=O)CCN(C)C)CC4)c(C)c3)n2n1 [Compound B37, 1-(4-(5-((4-amino-2-butoxyimidazo[2,1-f][1,2,4]triazin-7-yl)methyl)-3-methylpyridin-2-yl)piperazin-1-yl)-3-(dimethylamino)propan-1-one]	0.148
CCCCOc1nc(N)c2ncc(Cc3cnc(N4CCC(C(=O)N(C)C)CC4)c(C)c3)n2n1 [Compound B95, 1-(5-((4-amino-2-butoxyimidazo[2,1-f][1,2,4]triazin-7-yl)methyl)-3-methylpyridin-2-yl)-N,N-dimethylpiperidine-4-carboxamide]	4.38

same assay, conditions: HEK-Blue-hTLR7 cells, Table 2, C1-C6

Molecule	EC50 [µM]
6-propoxy-3-(4-(pyrrolidin-1-ylmethyl)benzyl)imidazo[1,2-b]pyridazin-8-amine [Compound C4]	> 10
